For series [1], the system named is ovariectomised rats, brain tissue. Nature of the series: Lipid peroxidation parameters in brain tissue of ovariectomised rats (antioxidant action). In kind it is in vivo. Conditions: per os in olive oil, single dose of 5 mg per 100 g of body weight the day before euthanasia. Here is the method: The experimental conditions: compound XVI was given per os in olive oil as a single dose of 5 mg per 100 g of body weight the day before euthanasia. […] Control group of animals were treated using olive oil without steroids.
Schiff bases contain was calculated in conventional units according to fluorometric data; triene conjugates—in conventional units—according to the spectrophotometer data under wave-length 274 nm.

Series [2] has as its system ovariectomised rats. Nature of the series: Ovariectomized rat assay: body weight, uterus, femur, serum cholesterol and triglycerides. The class given is in vivo, rats (Sprague Dawley). Particulars: n = 20. Here is the method:
(§1) The investigation of biological properties of steroids was carried out on sham operated and ovariectomized rats (Sprague Dawley) under the following conditions: compounds IV, XII, XIV and XV were given in olive oil, daily for 35 days.

The subject of series [3] is ovariectomised rats. Nature of the series: Effects on serum lipids and liver lipids of ovariectomised rats. The class given is in vivo, rats (Sprague Dawley). Here is the method:
as §1

The test system of series [4] is female mouse-hybrids F1CBAxC57BI6. Nature of the series: Influence on spleen, antibody-forming cells and thymus of mice after single per os dose. The class given is in vivo. Conditions: female mouse-hybrids F1CBAxC57BI6, per os single-dosing administration (5 mg/kg of BW). The source says: Method is described in the article.
Where [5] appears, read: Table 5, 0.05 mg/kg of body weight.
Where [6] appears, read: Table 1, 0.5 mg/kg BW in olive oil, daily for 35 days.
The mark [7] stands for this setting: Table 2, 0.1 mg/kg intramuscular injection.
Setting [8] is: Table 3, 0.2 mg/kg intramuscular injection.
Where [9] appears, read: Table 3, 0.5 mg/kg intramuscular injection.
Setting [10] is: Table 5, 5 mg/kg of body weight in olive oil, daily for 35 days.

The source of these data is patent publication US20110160296A1, “PREPARATION OF 6-OXA-8ALPHA-STEROID ESTROGEN ANALOGUES - A NEW GROUP OF UNNATURAL ESTROGENS AND THEIR USE IN MEDICINE” (TOPASS GMBH, priority 2007, published 2011).

`COc1ccc2c(c1)O[C@H](C)[C@H]1[C@@H]2CC[C@]2(C)[C@@H](OC(C)=O)CCC[C@@H]12` [Compound XVI]: in series [1] (control 0.209 ± 0.022), the Triene conjugates was 0.152 ± 0.022 conventional units/mg of phospholipids. The same compound yielded a Klein coefficient in series [1] (control 0.70 ± 0.01) of 0.71 ± 0.05. In addition, the Malonic dialdehyde in series [1] (control 1.65 ± 0.14) is 1.80 ± 0.18 nmol/mg of phospholipids. Further, in series [1] (control 12.2 ± 0.7), the Diene conjugates is recorded as 9.5 ± 1.0 nmol/mg of phospholipids. Also, the Schiff bases in series [1] (control 129 ± 10) was 96 ± 6 conventional units/mg of phospholipids.

Regarding `C#C[C@]1(O)CC[C@H]2[C@@H]3CCc4cc(O)ccc4[C@H]3CC[C@@]21C` [EE, 17α-Ethynylestradiol, reference compound], in the series on ovariectomised rats [2] (Table 1, 0.1 mg/kg BW), the “Change of body weight” value is 23.0 ± 4.3 g, the Serum cholesterol is 30.0 ± 1.7 mg/dL and the Uterus weight index is recorded as 154.0 ± 7.8 mg/100 g BW. For the same compound, in the series on ovariectomised rats [2] (setting [5]), the “Change of body weight” value was 3 ± 4 g, the “Femur weight index (ash femur weight/wet femur weight)” value is recorded as 0.436 ± 0.004, the Serum cholesterol came to 45.5 ± 2.1 mg/dL and the Serum triglycerides is 129.8 ± 14.5 mg/dL. In addition, the Uterus weight index in the series on ovariectomised rats [2] (setting [5]) worked out at 164 ± 11 mg/100 g BW.

As for `CC(=O)Oc1ccc2c(c1)OC[C@H]1[C@@H]2CC[C@]2(C)C(=O)CC[C@@H]12` [compound IV, 6-Oxa-8α-estrone acetate], in the series on ovariectomised rats [2] (setting [6]), the “Change of body weight” value stood at 45.5 ± 3.8 g, the “Femur weight index (ash femur weight/wet femur weigh)” value was 0.4219 ± 0.005 mg/mg, the Serum cholesterol is 51.9 ± 1.7 mg/dL and the Uterus weight index is listed as 71.8 ± 3.6 mg/100 g BW.

In the case of `COc1ccc2c(c1)OC[C@H]1[C@@H]2CC[C@]2(C)C(=O)CCC[C@@H]12` [compound XII, 6-Oxa-D-homo-8α-estrone methyl ether], in the series with ovariectomised rats [3] (setting [7]), the “Liver lipids Cholesterol” value came out at 2.69 ± 0.06 mg/g, the “Liver lipids Triglycerides” value is recorded as 5.21 ± 0.49 mg/g, the “Serum lipids Cholesterol” value came out at 1.68 ± 0.06 mmol/L and the “Serum lipids Triglycerides” value stood at 0.42 ± 0.05 mmol/L. Moreover, in the series on ovariectomised rats [3] (setting [8]), the “Liver lipids Cholesterol” value was found to be 2.69 ± 0.06 mg/g, the “Liver lipids Triglycerides” value is recorded as 3.72 ± 0.51 mg/g, the “Serum lipids Cholesterol” value came out at 1.04 ± 0.12 mmol/L and the “Serum lipids Triglycerides” value is 0.85 ± 0.05 mmol/L. Also, in the series on ovariectomised rats [3] (setting [9]), the “Liver lipids Cholesterol” value stood at 2.31 ± 0.06 mg/g, the “Liver lipids Triglycerides” value worked out at 3.17 ± 0.32 mg/g, the “Serum lipids Cholesterol” value was 0.85 ± 0.08 mmol/L and the “Serum lipids Triglycerides” value turned out to be 0.94 ± 0.05 mmol/L. Further, in the series with ovariectomised rats [3] (Table 4, 0.2 mg/kg per os), the “Liver lipids Cholesterol” value is 3.45 ± 0.15 mg/g, the “Liver lipids Triglycerides” value was determined as 7.1 ± 0.6 mg/g, the “Serum lipids Cholesterol” value was 0.99 ± 0.08 mmol/L and the “Serum lipids Triglycerides” value was determined as 1.45 ± 0.14 mmol/L.

As for `COc1ccc2c(c1)O[C@H](C)[C@H]1[C@@H]2CC[C@]2(C)C(=O)CCC[C@@H]12` [compound XIV, 7β-Methyl-D-homo-6-oxa-8α-estrone methyl ether], in the series on ovariectomised rats [2] (setting [10]), the “Change of body weight” value came to 51 ± 4 g, the “Femur weight index (ash femur weight/wet femur weight)” value was determined as 0.392 ± 0.004, the Serum cholesterol is 54.5 ± 2.8 mg/dL and the Serum triglycerides was 62.2 ± 5.2 mg/dL. The Uterus weight index in the series on ovariectomised rats [2] (setting [10]) came out at 34 ± 2 mg/100 g BW.

As to `C[C@H]1Oc2cc(O)ccc2[C@H]2CC[C@]3(C)C(=O)CCC[C@H]3[C@H]21` [compound XV], in series [4], the “content of antibody-forming cells” value was “does not influence”; the “mass and number of cells in spleen” value is recorded as “does not influence”; the “mass and number of cells in the thymus” value is reported as “does not influence”. Moreover, in the series with ovariectomised rats [2] (setting [10]), the “Change of body weight” value amounted to 48 ± 4 g, the “Femur weight index (ash femur weight/wet femur weight)” value was 0.390 ± 0.004, the Serum cholesterol turned out to be 52.2 ± 2.6 mg/dL and the Uterus weight index amounted to 33 ± 3 mg/100 g BW.
